Converted amounts (≈) assume the structure as drawn. Read-outs that look alike come from different tables or passages of the source.
Legend:
[1] = tested on: 54 clinically isolated C. difficile strains; assay: MIC by agar dilution against 54 clinically isolated strains; assay type: cell-based, Clostridioides difficile
Procedure: (§1) MICs obtained using the agar dilution method were determined visually as described for the CLSI method ([41], [42]). MICs obtained using the broth dilution method were determined visually based on the CLSI method except for using Gifu anaerobic medium (GAM) broth instead of supplemented Brucella broth ([41], [42]).

[2] = tested on: hypervirulent and nonhypervirulent strains of C. difficile (62 strains); assay: MIC distribution against 20 hypervirulent and 42 nonhypervirulent strains; assay type: cell-based, Clostridioides difficile; conditions: for MIC50 / MIC90: Clostridioides difficile
[3] = tested on: 10 clinical isolates of C. difficile; assay: MIC (broth dilution) and MBC testing, 10 clinical isolates; assay type: cell-based, Clostridioides difficile; conditions: 10 clinical isolates
Procedure: In this test, MIC testing was performed using the broth dilution method as recommended in the CLSI ([41]). After the MICs were determined, 10 μl of the bacterial suspension from the MIC test tube was inoculated onto agar plates and incubated at 37°C. The bacterial colonies were then counted and bacterial numbers were calculated. The MBC was considered to be the lowest concentration of the antibiotics that prevented growth and reduced the inoculum by >99.9% within 48 h, irrespective of counts of survivors at higher antibiotic concentrations.

C. difficile ATCC 700057 [4] = assay: MIC by agar dilution (CLSI) against quality control strain; assay type: cell-based, Clostridioides difficile; conditions: Clostridioides difficile, read-out: MIC
Procedure: as §1

C. difficile ATCC 700057 [5] = assay: MIC by broth dilution (GAM broth); assay type: cell-based, Clostridioides difficile; conditions: Clostridioides difficile, read-out: MIC
Procedure: as §1

C. difficile ATCC 700057 [6] = assay: Killing kinetics (time-kill curves); assay type: cell-based, Clostridioides difficile
Procedure: The test tubes were incubated for 48 h. The CFU/ml values of the bacterial suspensions were calculated at 0, 2, 4, 6, 24, and 48 h by culturing 0.1-ml samples of serial 10-fold dilutions on GAM agar plates at 37°C under anaerobic conditions and then counting the number of growing colonies. The CFU/ml value at each time point is from one sample of datum.

C. difficile ATCC 700057 [7] = assay type: cell-based, Clostridioides difficile
C. difficile ATCC 700057 [8] = assay: Mutant prevention concentration; assay type: cell-based, Clostridioides difficile
Procedure: The mutant prevention concentration was measured by plating approximately 10^10 CFU of C. difficile ATCC 700057 onto a GAM agar plate containing the test agent. Inoculated plates were incubated for 3 days, and the MIC for each antibiotic that prevented the growth of colonies was determined using the agar dilution method as described by the CLSI ([41]). The MIC values of grown colonies were compared to determine which bacteria were resistant. The MPC was defined as the lowest concentration that prevented the growth of resistant bacteria.

C. difficile ATCC 700057 [9] = assay: Postantibiotic effect (PAE); assay type: cell-based, Clostridioides difficile; conditions: for Postantibiotic effect: 1 h exposure
Procedure: C. difficile ATCC 700057 was cultured in GAM agar and adjusted in GAM broth to approximately 10^6 CFU/ml. The bacterial suspensions were preincubated at 37°C for 1 h. […] After preincubation, test and reference solutions were added to each bacterial suspension in a test tube, and the suspensions were cultured for 1 h. After exposure to the test compounds, bacterial suspensions were washed with GAM broth and cultured for 6 h. […] The PAE was defined according to Craig and Gudmundsson as PAE = T − C, where T is the time required for the viable counts of the exposed bacteria to increase by 1 log10 above the counts observed immediately after washing, and C is the corresponding time for the antibiotic unexposed controls ([44]).

C. difficile ATCC 43255 [10] = assay: In vivo hamster model of C. difficile infection; design: species or system golden Syrian hamsters
Procedure: C. difficile ATCC 43255 was cultured on GAM agar, and a bacterial suspension was prepared in saline ([26]). […] Hamsters were infected using oral gavage with 0.5 ml of suspension containing approximately 10^6 CFU of C. difficile (day −1). The next day, the animals were administered clindamycin phosphate (0.2 mg/ml in water) by oral gavage at a dose of 5 ml/kg of body weight, for a final dose of 1 mg/kg (day 0). The animals were allocated to the test groups using a stratified randomization method based on the body weight of each infected animal. The test compounds were administered by oral gavage once daily for 5 days (OPS-2071, 0.008 to 1 mg/kg; fidaxomicin, 0.04 mg/kg to 5 mg/kg; vancomycin, 0.04 to 5 mg/kg [5-fold dilution]). Infected control animals were administered 5% (wt/vol) gum arabic solution by oral gavage. […] The cecal contents of dead animals were tested for toxin A and toxin B using C.Diff Quik Chek Complete (Abbott Diagnostics Medical Co., Ltd., Tokyo, Japan) to confirm that the death of the animal was due to CDI.
The statistical significance of OPS-2071, fidaxomicin, and vancomycin treatment was analyzed at all doses against vehicle. Survival curves were estimated for each group using the Kaplan-Meier method. Differences in survival homogeneity in each group were evaluated with a log-rank test with Dunnett-type (two-sided) comparison.

C. difficile ATCC 43255 [11] = assay: MIC against the infection strain; assay type: cell-based, Clostridioides difficile
C. difficile ATCC 700057 [12] = assay: Effect of pH on MIC (agar dilution); assay type: cell-based, Clostridioides difficile; conditions: for MIC: Clostridioides difficile
in vitro = conditions: mouse
[13] = nonhypervirulent strains (n = 42)

SMILES: Cc1c(-c2cnc(N)c(C#N)c2)c(F)cc2c(=O)c(C(=O)O)cn(C3CC3)c12 [OPS-2071, 7-(6-amino-5-cyanopyridin-3-yl)-1-cyclopropyl-6-fluoro-8-methyl-4-oxo-1,4-dihydroquinoline-3-carboxylic acid]
- MIC50 fold higher than that of fidaxomicin ([1]; 54 clinical isolates): 2 fold
- MIC50 fold lower than those of vancomycin and metronidazole ([1]; 54 clinical isolates): 16 fold
- MIC90 fold lower than that of fidaxomicin ([1]; 54 clinical isolates): 16 fold
- MIC90 fold lower than those of vancomycin and metronidazole ([1]; 54 clinical isolates): 8 fold
- MIC range ([1]; 54 clinically isolated C. difficile strains): 0.016 to 1 mg/L
- MIC50 ([1]; Clostridioides difficile): 0.125 mg/L (≈ 0.33 µM)
- MIC90 ([1]; Clostridioides difficile, 54 clinically isolated C. difficile strains): 0.5 mg/L (≈ 1.32 µM)
- MIC50 ([2]; hypervirulent strains (n = 20)): 0.03 mg/L (≈ 0.0793 µM)
- MIC90 ([2]; hypervirulent strains (n = 20)): 0.25 mg/L (≈ 0.661 µM)
- MIC50 [2, 13]: 0.03 mg/L (≈ 0.0793 µM)
- MIC90 [2, 13]: 0.125 mg/L (≈ 0.33 µM)
- Cumulative percentage of strains ([2]; Hyp (n = 20), MIC 0.063 μg/ml): 75%
- Cumulative percentage of strains ([2]; Hyp (n = 20), MIC 0.25 μg/ml): 100%
- Cumulative percentage of strains ([2]; Non-hyp (n = 42), MIC 0.063 μg/ml): 88%
- Cumulative percentage of strains ([2]; Non-hyp (n = 42), MIC 0.25 μg/ml): 100%
- MIC range ([2]; hypervirulent strains (n = 20)): 0.03 to 0.25 mg/L
- MIC range [2, 13]: 0.03 to 0.25 mg/L
- MBC90/MIC90 [3]: 1
- MBC Range ([3]; >99.9% reduction within 48 h): 0.03 to 0.5 mg/L
- MIC range ([3]; broth dilution): 0.03 to 0.5 mg/L
- MIC90 ([3]; Clostridioides difficile, broth dilution, read-out: MIC90): 0.5 mg/L (≈ 1.32 µM)
- MBC ([3]; Clostridioides difficile, read-out: MBC90): 0.5 mg/L (≈ 1.32 µM)
- MIC (C. difficile ATCC 700057 [4]; ATCC700057, agar dilution, determined for the spontaneous resistance assay): 0.03 mg/L (≈ 0.0793 µM)
- MIC (C. difficile ATCC 700057 [4]; ATCC700057, quality control strain ATCC 700057, CLSI method): 0.031 mg/L (≈ 0.0819 µM)
- MIC (C. difficile ATCC 700057 [5]; ATCC700057, broth dilution, retested for the time-kill assay): 0.03 mg/L (≈ 0.0793 µM)
- MIC (C. difficile ATCC 700057 [5]; ATCC700057, broth method, determined for the PAE assay): 0.06 mg/L (≈ 0.159 µM)
- regrowth of the bacteria (C. difficile ATCC 700057 [6]; after 48 h of incubation): regrowth of the bacteria did not occur
- time to undetectable level of viable bacteria (C. difficile ATCC 700057 [6]; concentrations higher than the MIC): ≤ 24 h
- reduction of viable bacteria (C. difficile ATCC 700057 [6]; concentrations higher than the MIC, first 2 h): 2 log
- Frequency of spontaneous resistance (C. difficile ATCC 700057 [7]; 4× MIC): <9.17 × 10^–9
- Frequency of spontaneous resistance (C. difficile ATCC 700057 [7]; 16× MIC): <9.17 × 10^–9
- Frequency of spontaneous resistance (C. difficile ATCC 700057 [7]; 64× MIC): <9.17 × 10^–9
- MPC fold lower than those of fidaxomicin and vancomycin (C. difficile ATCC 700057 [8]): 16 fold
- mutant prevention concentration (MPC) (C. difficile ATCC 700057 [8]; approximately 10^10 CFU, 3 days): 0.5 µg/mL
- PAEs at 4- and 8-fold the MIC (C. difficile ATCC 700057 [9]; 4- and 8-fold the MIC): 3.93 to 4.04 h
- Postantibiotic effect (C. difficile ATCC 700057 [9]; 4× MIC): 3.93 h
- Postantibiotic effect (C. difficile ATCC 700057 [9]; 8× MIC): 4.04 h
- ED50 fold lower than that of fidaxomicin (C. difficile ATCC 43255 [10]; hamster, in vivo): 52.1 fold
- ED50 fold lower than that of vancomycin (C. difficile ATCC 43255 [10]; hamster, in vivo): 39.0 fold
- 50% effective dose (ED50) (C. difficile ATCC 43255 [10]; survival on day 20, oral once daily for 5 days, probit method): 0.0313 mg/kg/day
- dosages with significant efficacy compared with vehicle control (C. difficile ATCC 43255 [10]; survival, log-rank test): ≥ 0.04 mg/kg
- MIC (C. difficile ATCC 43255 [11]): 0.016 mg/L (≈ 0.0423 µM)
- MIC (C. difficile ATCC 700057 [12]; ATCC700057, pH 6): 0.016 mg/L (≈ 0.0423 µM)
- MIC (C. difficile ATCC 700057 [12]; ATCC700057, pH 7): 0.016 mg/L (≈ 0.0423 µM)
- MIC (C. difficile ATCC 700057 [12]; ATCC700057, pH 8): 0.03 mg/L (≈ 0.0793 µM)
- influence of pH on MICs (C. difficile ATCC 700057 [12]; pH 6 to 8): not influenced by pH
- IC50 at 110 min (in vitro): > 100 mg/L

— publication PMC8097418, “In Vitro and In Vivo Antibacterial Activities of a Novel Quinolone Compound, OPS-2071, against Clostridioides difficile” (Antimicrobial Agents and Chemotherapy, 2021)
